The text below walks through data of PMC7139549, “TLD1433 Photosensitizer Inhibits Conjunctival Melanoma Cells in Zebrafish Ectopic and Orthotopic Tumour Models” (Cancers, 2020).

Holding throughout (type): cell-based, Human
Experiment [1] concerns MEL270 uveal melanoma cell line. As to the kind of experiment: SRB cell viability assay, MEL270. As for the experimental part:
(§1) TLD1433 is known to generate reactive oxygen species (ROS) with high quantum efficacy in many cancer cell lines. However, there is no report of the in vitro toxicity of this compound in eye melanoma (UM) cell lines. We determined the cell viability of three conjunctival melanoma cell lines (CRMM1, CRMM2 and CM2005.1), and three uveal melanoma cell lines (OMM1, OMM2.5, MEL270) in the presence of TLD1433, both in the dark or under green light irradiation (21 mW/cm^2, 19 J/cm^2, 520 nm, 15 min), and compared this viability to epidermoid carcinoma A431 and cutaneous melanoma A375 cell lines under the same conditions. The protocol used was based on previous work from the Bonnet group, and differed slightly from recommendations from McFarland et al.. […] The effective concentration (EC50) values, i.e., the concentration required to reduce cell viability by 50% compared to untreated wells, were assessed by fitting the dose-response curves with a Hill equation. The phototoxicity index (PI), defined as the ratio of the dark EC50 to the light EC50, was also calculated and represents the amplification of TLD1433 activity with a light trigger. […]
(§2) Figure 2 Cell viability after TLD1433 treatment of eight tumour cell lines (CRMM1, CRMM2, CM2005.1, OMM1, OMM2.5, MEL270, A431, A375). […] The absorbance of Sulforhodamine B in solution was measured at 520 nm. […]
(§3) At day 0, cells were detached using 1mL of trypsin, resuspended in 4 mL of media and transferred to a 15 mL corning falcon tube. Cells were counted using trypan blue and BioRad® TC20™ automated cell counter (Figure 11). Dilutions of 6000 (CRMM1), 6000 (CRMM2), 8000 (CM2005.1), 6000 (OMM1), 6000 (OMM2.5), 6000 (MEL270) 8000 (A431), and 4000 (A375) cells/well were calculated from each cell suspension at a final volume of 6 mL using the following formula: Vc=(Vt×10C)/Lc where Vt = total volume of solution, C = number of cells per well/per 100 μL and Lc = live cells count (cells/mL). […] Next day, the dye was dissolved using Tri-base (0.25%) and absorbance of SRB at 510 nm was recorded from each well using a Tecan plate reader. […]

Experiment [2] deals with CRMM2 conjunctival melanoma cell line. As to the kind of experiment: SRB cell viability assay, CRMM2. As for the experimental part: as §1, §2, §3
In the next experiment the test system is CM cells. Kind of experiment: SRB cell viability assay, CM cells. The following applies: dark EC50 to light EC50. The method, then:
TLD1433 is known to generate reactive oxygen species (ROS) with high quantum efficacy in many cancer cell lines. However, there is no report of the in vitro toxicity of this compound in eye melanoma (UM) cell lines. We determined the cell viability of three conjunctival melanoma cell lines (CRMM1, CRMM2 and CM2005.1), and three uveal melanoma cell lines (OMM1, OMM2.5, MEL270) in the presence of TLD1433, both in the dark or under green light irradiation (21 mW/cm^2, 19 J/cm^2, 520 nm, 15 min), and compared this viability to epidermoid carcinoma A431 and cutaneous melanoma A375 cell lines under the same conditions. […] The phototoxicity index (PI), defined as the ratio of the dark EC50 to the light EC50, was also calculated and represents the amplification of TLD1433 activity with a light trigger. […]
At day 0, cells were detached using 1mL of trypsin, resuspended in 4 mL of media and transferred to a 15 mL corning falcon tube. Cells were counted using trypan blue and BioRad® TC20™ automated cell counter (Figure 11). Dilutions of 6000 (CRMM1), 6000 (CRMM2), 8000 (CM2005.1), 6000 (OMM1), 6000 (OMM2.5), 6000 (MEL270) 8000 (A431), and 4000 (A375) cells/well were calculated from each cell suspension at a final volume of 6 mL using the following formula: Vc=(Vt×10C)/Lc where Vt = total volume of solution, C = number of cells per well/per 100 μL and Lc = live cells count (cells/mL). […]

The test system of experiment [3] is OMM1 uveal melanoma cell line. As to the kind of experiment: SRB cell viability assay, OMM1. As for the experimental part: as §1, §2, §3

Read-outs that look alike come from different tables or passages of the source. A value given as a limit tells only on which side of the number the result lay.

Consider `Cc1ccnc(-c2cc(C)ccn2)c1.Cc1ccnc(-c2cc(C)ccn2)c1.[Cl-].[Cl-].[Ru+2].c1csc(-c2ccc(-c3ccc(-c4nc5c6cccnc6c6ncccc6c5[nH]4)s3)s2)c1` [TLD1433], for which the EC50 in experiment [1] (MEL270, dark, 24 h treatment, SRB, read-out: EC50, dark) amounted to 1100 nM; in experiment [1] (MEL270, green light 520 nm, 15 min, 21 mW/cm^2, 19 J.cm^−2, DLI 24 h, read-out: EC50,light), 10 nM; in experiment [2] (CRMM2, dark, 24 h treatment, SRB, read-out: EC50, dark), 1000 nM; in experiment [2] (CRMM2, green light 520 nm, 15 min, 21 mW/cm^2, 19 J.cm^−2, DLI 24 h, read-out: EC50,light) it was 4.8 nM; in experiment [3] (OMM1, dark, 24 h treatment, SRB, read-out: EC50, dark), 1400 nM; in experiment [3] (OMM1, green light 520 nm, 15 min, 21 mW/cm^2, 19 J.cm^−2, DLI 24 h, read-out: EC50,light), 14 nM. Moreover, the “PI (photo index)” value in experiment [1] (MEL270, ratio of dark and light EC50, 19 J.cm^−2 green light) is 110; in experiment [2] (CRMM2, ratio of dark and light EC50, 19 J.cm^−2 green light) it was 210; in experiment [3] (OMM1, ratio of dark and light EC50, 19 J.cm^−2 green light) it was 100. For the same compound, in the experiment with CM cells, the PI is > 140.
